From US11530244B2, “Cyclic polypeptides for PCSK9 inhibition” (priority 2018, dated 2022)
Read-outs that look alike come from different tables or passages of the source. Starred links: 1 amine or outer side, 2 acyl side, 3 side chain; linkers in the order of their positions; H or OH if unused. Positions of bridges follow the written chain, without caps; N, C: chain ends. Non-standard residues stand in square brackets, D forms with d. Residues, ends and D or L forms follow the SMILES beside them. Ala(imidazol-2-yl) = N[C@@H](Cc1ncc[nH]1)C(=O)O; Trp(5-F) = N[C@@H](Cc1c[nH]c2ccc(F)cc12)C(=O)O; Phe(4-CH2NH2) = NCc1ccc(C[C@H](N)C(=O)O)cc1; X33 = CC(C)C(N[*:1])c1ncc(C(=O)[*:2])[nH]1; Pro(cis-4-F) = O=C(O)[C@@H]1C[C@H](F)CN1; Lys(N3) = [N-]=[N+]=NCCCC[C@H](N)C(=O)O; X4 = O=C(CCSCc1cccc(CSCCN[*:1])c1)[*:2]; X40 = FC(F)(F)c1cc(C[*:1])cc(C[*:2])c1; mXylylene = c1cc(C[*:1])cc(C[*:2])c1; X53 = C#CCCC[C@H](N[*:1])C(=O)[*:2]; Adipoyl = O=C(CCCCC(=O)[*:2])[*:1]; aThr = C[C@H](O)[C@H](N)C(=O)O; Aoc(2) = CCCCCC[C@H](N)C(=O)O; αMeP = C[C@@]1(C(=O)O)CCCN1; Dab = NCC[C@H](N)C(=O)O; Dap = NC[C@H](N)C(=O)O; X2 = O=C(C[*:2])[*:1]; AEA = NCCOCC(=O)O; Mpa = O=C(O)CCS

Molecular target: PCSK9 (Homo sapiens (Human), UniProt Q8NBP7)
Test: PCSK9 Alexa FRET Standard assay (displacement of AlexaFluor647 tagged cyclic peptide Reagent A)
Assay type: binding
Protocol: A solution containing 1 nM biotinylated PCSK9+2.5 nM Lance Streptavidin Europium (Strep-Eu) was made in 50 mM HEPES pH 7.4, 0.15 M NaCl, 5 mM CaCl2), 0.01% BSA, and 0.01% Surfactant P20. A separate solution containing 40 nM of the AlexaFluor tagged cyclic peptide was made in the same buffer system. An Echo was used to transfer 0.750 ul of compound to an assay plate followed by the addition of 15 ul of PCSK9+Stept-Eu and 15 ul of AF peptide. The final assay volume was 30.750 ul containing 0.5 nM PCSK9, 1.25 nM Strep-Eu, and 20 nM AF cyclic peptide. The reaction was incubated at room temperature for at least two hours prior to fluorescence measurements using an Envision Multilabel Reader. IC50 values were determined by fitting data to a sigmoidal dose-response curve using nonlinear regression. Ki was then calculated from the IC50 and the KD of AF cyclic peptide. Counts (B-counts) of the europium-labeled PCSK9 were followed to observe if compounds were […]. A fall off of the B-counts likely indicated a false positive of inhibition. Data from this procedure was reported as “A=‘numerical value’ (nanomolar)”

[1] = PCSK9 Alexa FRET Standard assay, 0.5 nM PCSK9, 20 nM AF cyclic peptide Reagent A, read-out: IC50

PCSK9, sequence (Q8NBP7 153-692): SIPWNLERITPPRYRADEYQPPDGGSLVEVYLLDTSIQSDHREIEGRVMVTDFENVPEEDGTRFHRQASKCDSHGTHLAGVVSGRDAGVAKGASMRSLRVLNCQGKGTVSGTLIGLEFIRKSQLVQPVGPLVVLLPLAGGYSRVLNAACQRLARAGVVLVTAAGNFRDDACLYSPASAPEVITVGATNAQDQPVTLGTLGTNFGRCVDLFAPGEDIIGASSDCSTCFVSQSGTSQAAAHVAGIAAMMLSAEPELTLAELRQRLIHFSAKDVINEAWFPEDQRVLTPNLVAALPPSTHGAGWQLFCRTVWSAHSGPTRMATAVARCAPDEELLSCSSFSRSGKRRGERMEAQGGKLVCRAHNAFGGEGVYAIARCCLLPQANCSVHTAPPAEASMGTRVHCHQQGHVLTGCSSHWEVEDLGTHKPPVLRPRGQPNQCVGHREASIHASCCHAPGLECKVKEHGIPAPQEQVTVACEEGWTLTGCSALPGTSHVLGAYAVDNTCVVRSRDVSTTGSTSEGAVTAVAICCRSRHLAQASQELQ

| IC50 [1] [µM] | SMILES | IC50 (IC50) [µM] |
| --- | --- | --- |
|  | C#CCCC[C@@H]1NC(=O)[C@H](Cc2c[nH]c3ccc(F)cc23)NC(=O)[C@H](CCCCN=[N+]=[N-])NC(=O)[C@@H](C)NC(=O)[C@H](CCCCN)NC(=O)CCSCc2cccc(c2)CSCCNC(=O)[C@]2(C)CCCN2C(=O)[C@H](Cc2ccc(OC)cc2)NC(=O)[C@H]([C@H](C)O)NC1=O [Compound 074] (cyclo(K[dA][Lys(N3)][Trp(5-F)][X53][aThr]Y(Me)[αMeP][X4])) | 21 to 50 |
| 21 to 50 | COc1ccc(C[C@@H]2NC(=O)[C@H]([C@@H](C)O)NC(=O)[C@@H]3CCCN3C(=O)[C@H](Cc3c[nH]c4ccc(F)cc34)NC(=O)[C@H](Cc3c[nH]c4ccc(F)cc34)NC(=O)[C@@H](C)NC(=O)[C@H](CCCCN)NC(=O)CCSCc3cc(cc(C(F)(F)F)c3)CSC[C@@H](C(N)=O)NC(=O)[C@]3(C)CCCN3C2=O)cc1 [Compound 073] ([Mpa]K[dA][Trp(5-F)][Trp(5-F)]PTY(Me)[αMeP]C-NH2; linker 1-10 via X40) |  |
| 21 to 50 | C[C@@]12CCCN1C(=O)[C@H](Cc1ccc(O)cc1)NC(=O)CN1CCCC[C@H](NC(=O)[C@H](Cc3c[nH]c4ccc(F)cc34)NC(=O)[C@H](Cc3c[nH]c4ccc(F)cc34)NC(=O)CNC(=O)[C@H](CCCCN)NC(=O)CCSCc3cccc(c3)CSC[C@@H](C(N)=O)NC2=O)C1=O [Compound 104] |  |
| 21 to 50 | COc1ccc(C[C@@H]2NC(=O)[C@H]([C@@H](C)O)NC(=O)[C@@H]3C[C@H](F)CN3C(=O)[C@H](Cc3c[nH]c4ccc(F)cc34)NC(=O)[C@H](Cc3c[nH]c4ccc(F)cc34)NC(=O)[C@@H](C)NC(=O)[C@H](CCCCN)NC(=O)[C@@H](NC(C)=O)CCNC(=O)COc3ccc(cc3)C[C@@H](C(N)=O)NC(=O)[C@]3(C)CCCN3C2=O)cc1 [Compound 075] (Ac-[Dab]K[dA][Trp(5-F)][Trp(5-F)][Pro(cis-4-F)]TY(Me)[αMeP]Y-NH2; linker 1-10 via X2) |  |
| 21 to 50 | CC(=O)N[C@H]1CCNC(=O)COc2ccc(cc2)C[C@@H](C(N)=O)NC(=O)[C@]2(C)CCCN2C(=O)[C@H](Cc2ccc(O)cc2)NC(=O)[C@H](Cc2cnc[nH]2)NC(=O)[C@H](CC(=O)O)NC(=O)[C@H](Cc2c[nH]c3ccc(F)cc23)NC(=O)[C@H](Cc2c[nH]c3ccc(F)cc23)NC(=O)CNC(=O)[C@H](C)NC1=O [Compound 352] (Ac-[Dab]AG[Trp(5-F)][Trp(5-F)]DHY[αMeP]Y-NH2; linker 1-10 via X2) |  |
| 0.00011 to 0.1 | CCCCCC[C@@H]1NC(=O)CCSCc2cccc(c2)CSCCNC(=O)[C@]2(C)CCCN2C(=O)[C@H](Cc2ccc(OC)cc2)NC(=O)[C@H](Cc2ncc[nH]2)NC(=O)[C@H](CC(=O)O)NC(=O)[C@H](Cc2c[nH]c3ccc(F)cc23)NC(=O)[C@H](Cc2c[nH]c3ccc(F)cc23)NC(=O)[C@@H](C)NC1=O [Compound 442] (cyclo([Aoc(2)][dA][Trp(5-F)][Trp(5-F)]D[Ala(imidazol-2-yl)]Y(Me)[αMeP][X4])) |  |
| 1 to 12.1 | COc1ccc(C[C@@H]2NC(=O)[C@H](Cc3ncc[nH]3)NC(=O)[C@H](CC(=O)O)NC(=O)[C@H](Cc3c[nH]c4ccc(F)cc34)NC(=O)[C@H](Cc3c[nH]c4ccc(F)cc34)NC(=O)[C@@H](C)NC(=O)[C@H](CCC(N)=O)NC(=O)CCSCc3cccc(c3)CSCCNC(=O)[C@]3(C)CCCN3C2=O)cc1 [Compound 446] (cyclo(D[Ala(imidazol-2-yl)]Y(Me)[αMeP][X4]Q[dA][Trp(5-F)][Trp(5-F)])) |  |
| 0.1 to 1 | CC(C)C1NC(=O)CCSCc2cccc(c2)CSC[C@@H](C(N)=O)NC(=O)[C@]2(C)CCCN2C(=O)[C@H](Cc2ccc(O)cc2)NC(=O)[C@H](Cc2c[nH]cn2)NC(=O)[C@H](CC(=O)O)NC(=O)[C@H](Cc2c[nH]c3ccc(F)cc23)NC(=O)[C@H](Cc2c[nH]c3ccc(F)cc23)NC(=O)c2cnc1[nH]2 (stereo partly shown) [Compound 450] ([Mpa][X33][Trp(5-F)][Trp(5-F)]DHY[αMeP]C-NH2; linker 1-9 via mXylylene) |  |

| SMILES | IC50 [1] [µM] | IC50 (IC50) [µM] |
| --- | --- | --- |
| NC(=O)[C@@H]1Cc2ccc(cc2)CNC(=O)CCCCC(=O)NCC(=O)N[C@@H](Cc2c[nH]c3ccc(F)cc23)C(=O)N[C@@H](Cc2c[nH]c3ccc(F)cc23)C(=O)N[C@@H](CC(=O)O)C(=O)N[C@@H](Cc2cnc[nH]2)C(=O)N[C@@H](Cc2ccc(O)cc2)C(=O)N1 [Compound 438] (G[Trp(5-F)][Trp(5-F)]DHY[Phe(4-CH2NH2)]-NH2; linker N-7 via Adipoyl) | 21 to 50 |  |
| COc1ccc(C[C@@H]2NC(=O)[C@H](Cc3cnc[nH]3)NC(=O)[C@H](CC(=O)O)NC(=O)[C@H](Cc3c[nH]c4ccc(F)cc34)NC(=O)[C@H](Cc3c[nH]c4ccc(F)cc34)NC(=O)[C@@H](C)NC(=O)[C@H](CNC(=O)COCCN)NC(=O)CCSCc3cccc(c3)CSCCNC(=O)[C@]3(C)CCCN3C2=O)cc1 [Compound 424] (cyclo(DHY(Me)[αMeP][X4][Dap](AEA)[dA][Trp(5-F)][Trp(5-F)])) | 0.00011 to 0.1 |  |
